Experiment: Solubility under DCL conditions
Format: physicochemical
Settings: aqueous buffer; basic pH and 2.5% (v/v) DMSO
Excerpt: reaction of compound 3 to (3)2 in the presence of selenocystine and DMSO. The accelerating role of DMSO wa s disca rded by running control experim ents containing up to 20% (v/v) DMSO, which is much larger than the amount of this co-solvent used in our standard conditions (2.5% (v/v) DMSO).
1) All the amino acids shown in Figure 3 have D-stereochemistry. I guess this is an error, please amend that. The same issue states for the structures in Figure 1.
Thank you. It has been corrected.
2) For every mention to % of a reagent, especially in the methods part, it should be clearly stated if this is volume, weight of molar percent, and with respect to what.
Thank you. It has been included.
3) Some of the disulfides formed in the libraries (i.e. (4)2) are expected to be poorly soluble in buffered water. […] When quantifying species in a mixture, solubility problems must be carefully […]
1.The main problem of the MS is that the authors only describe the rate enhancement by comparing if the reactions have reached equilibrium after 24 h or 96 h, as characterised by HPLC. It is shown for different ratios of the catalyst, but it doesn’t provide any quantitative measure of the rate acceleration. […] The authors should provide quantitative characterisation of the rate constants, starting with a simple homodimerisation of thiols, as it is done in ref. 15. […]

With `c1ccc(SSc2ccccc2)cc1` [(4)2] the solubility was no more than 2000 µM.
